Assay results from patent publication US12685735B2 (Foghorn Therapeutics Inc., priority 2020, dated 2026).

Tests used:
BRM = BRM (Homo sapiens, UniProt P51531); test: ATPase catalytic activity assay of BRM (ADP-Glo); assay type: biochemical; conditions: for IC50: read-out: BRM IC50 (μM)*
Summary of the method: (§1)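 Luminescent ADP-Glo readout of ADP generated by ATP hydrolysis. Post-reaction: ATP depletion reagent, RT 40 min; detection reagent converting ADP→ATP, RT 60 min; luminescence read.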

BRG-1 = BRG-1 (Homo sapiens, UniProt P51532); test: ATPase catalytic activity assay of BRG-1 (ADP-Glo); assay type: biochemical; conditions: ATPase catalytic activity, ADP-Glo; for IC50: read-out: BRG1 IC50 (μM)*; for Emax: read-out: BRG1 Max % Inhibition
Summary of the method: as §1

BRG-1, sequence (P51532 whole entry): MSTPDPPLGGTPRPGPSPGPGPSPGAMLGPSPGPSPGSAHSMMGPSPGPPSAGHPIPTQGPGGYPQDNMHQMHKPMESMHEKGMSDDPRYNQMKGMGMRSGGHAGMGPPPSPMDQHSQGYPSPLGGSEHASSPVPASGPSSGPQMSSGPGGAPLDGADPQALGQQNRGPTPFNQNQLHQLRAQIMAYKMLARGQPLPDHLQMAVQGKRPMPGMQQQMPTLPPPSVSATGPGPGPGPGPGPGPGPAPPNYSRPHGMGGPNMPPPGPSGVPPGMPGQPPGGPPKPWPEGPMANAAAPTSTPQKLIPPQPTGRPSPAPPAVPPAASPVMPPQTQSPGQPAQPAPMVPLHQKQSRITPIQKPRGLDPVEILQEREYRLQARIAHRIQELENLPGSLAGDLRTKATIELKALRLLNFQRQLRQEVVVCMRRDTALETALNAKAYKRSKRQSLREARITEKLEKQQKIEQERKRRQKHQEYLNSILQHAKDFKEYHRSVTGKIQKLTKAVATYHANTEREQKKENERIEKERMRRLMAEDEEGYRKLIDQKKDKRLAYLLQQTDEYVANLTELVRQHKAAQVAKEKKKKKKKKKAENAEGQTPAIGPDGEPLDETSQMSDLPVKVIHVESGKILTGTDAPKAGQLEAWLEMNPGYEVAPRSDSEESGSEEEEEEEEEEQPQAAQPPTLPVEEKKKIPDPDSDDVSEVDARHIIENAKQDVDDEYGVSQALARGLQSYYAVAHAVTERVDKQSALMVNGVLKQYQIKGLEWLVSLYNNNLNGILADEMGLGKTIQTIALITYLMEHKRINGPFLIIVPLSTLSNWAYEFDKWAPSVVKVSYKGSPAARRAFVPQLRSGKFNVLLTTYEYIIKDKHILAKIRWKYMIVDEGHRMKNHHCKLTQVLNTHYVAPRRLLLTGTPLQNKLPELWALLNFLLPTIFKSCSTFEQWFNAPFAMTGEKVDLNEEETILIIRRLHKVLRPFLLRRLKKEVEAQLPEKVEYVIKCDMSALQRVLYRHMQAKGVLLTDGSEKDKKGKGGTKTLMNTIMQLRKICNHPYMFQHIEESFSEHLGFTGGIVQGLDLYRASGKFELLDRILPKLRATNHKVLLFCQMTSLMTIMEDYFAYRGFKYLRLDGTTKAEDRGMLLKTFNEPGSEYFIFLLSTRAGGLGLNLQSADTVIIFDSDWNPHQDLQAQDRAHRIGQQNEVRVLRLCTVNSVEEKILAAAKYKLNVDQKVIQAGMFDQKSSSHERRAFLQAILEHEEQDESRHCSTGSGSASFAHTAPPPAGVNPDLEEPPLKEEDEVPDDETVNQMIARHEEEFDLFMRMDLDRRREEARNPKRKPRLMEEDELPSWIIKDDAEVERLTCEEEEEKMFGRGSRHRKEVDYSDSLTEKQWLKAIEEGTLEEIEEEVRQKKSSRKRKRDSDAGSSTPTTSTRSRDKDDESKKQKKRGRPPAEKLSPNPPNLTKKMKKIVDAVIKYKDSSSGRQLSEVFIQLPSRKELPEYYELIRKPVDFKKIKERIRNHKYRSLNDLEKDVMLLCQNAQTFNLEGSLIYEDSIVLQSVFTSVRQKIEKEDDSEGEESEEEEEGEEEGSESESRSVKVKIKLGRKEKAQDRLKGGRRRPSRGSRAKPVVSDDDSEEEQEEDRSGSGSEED
BRM, sequence (P51531 whole entry): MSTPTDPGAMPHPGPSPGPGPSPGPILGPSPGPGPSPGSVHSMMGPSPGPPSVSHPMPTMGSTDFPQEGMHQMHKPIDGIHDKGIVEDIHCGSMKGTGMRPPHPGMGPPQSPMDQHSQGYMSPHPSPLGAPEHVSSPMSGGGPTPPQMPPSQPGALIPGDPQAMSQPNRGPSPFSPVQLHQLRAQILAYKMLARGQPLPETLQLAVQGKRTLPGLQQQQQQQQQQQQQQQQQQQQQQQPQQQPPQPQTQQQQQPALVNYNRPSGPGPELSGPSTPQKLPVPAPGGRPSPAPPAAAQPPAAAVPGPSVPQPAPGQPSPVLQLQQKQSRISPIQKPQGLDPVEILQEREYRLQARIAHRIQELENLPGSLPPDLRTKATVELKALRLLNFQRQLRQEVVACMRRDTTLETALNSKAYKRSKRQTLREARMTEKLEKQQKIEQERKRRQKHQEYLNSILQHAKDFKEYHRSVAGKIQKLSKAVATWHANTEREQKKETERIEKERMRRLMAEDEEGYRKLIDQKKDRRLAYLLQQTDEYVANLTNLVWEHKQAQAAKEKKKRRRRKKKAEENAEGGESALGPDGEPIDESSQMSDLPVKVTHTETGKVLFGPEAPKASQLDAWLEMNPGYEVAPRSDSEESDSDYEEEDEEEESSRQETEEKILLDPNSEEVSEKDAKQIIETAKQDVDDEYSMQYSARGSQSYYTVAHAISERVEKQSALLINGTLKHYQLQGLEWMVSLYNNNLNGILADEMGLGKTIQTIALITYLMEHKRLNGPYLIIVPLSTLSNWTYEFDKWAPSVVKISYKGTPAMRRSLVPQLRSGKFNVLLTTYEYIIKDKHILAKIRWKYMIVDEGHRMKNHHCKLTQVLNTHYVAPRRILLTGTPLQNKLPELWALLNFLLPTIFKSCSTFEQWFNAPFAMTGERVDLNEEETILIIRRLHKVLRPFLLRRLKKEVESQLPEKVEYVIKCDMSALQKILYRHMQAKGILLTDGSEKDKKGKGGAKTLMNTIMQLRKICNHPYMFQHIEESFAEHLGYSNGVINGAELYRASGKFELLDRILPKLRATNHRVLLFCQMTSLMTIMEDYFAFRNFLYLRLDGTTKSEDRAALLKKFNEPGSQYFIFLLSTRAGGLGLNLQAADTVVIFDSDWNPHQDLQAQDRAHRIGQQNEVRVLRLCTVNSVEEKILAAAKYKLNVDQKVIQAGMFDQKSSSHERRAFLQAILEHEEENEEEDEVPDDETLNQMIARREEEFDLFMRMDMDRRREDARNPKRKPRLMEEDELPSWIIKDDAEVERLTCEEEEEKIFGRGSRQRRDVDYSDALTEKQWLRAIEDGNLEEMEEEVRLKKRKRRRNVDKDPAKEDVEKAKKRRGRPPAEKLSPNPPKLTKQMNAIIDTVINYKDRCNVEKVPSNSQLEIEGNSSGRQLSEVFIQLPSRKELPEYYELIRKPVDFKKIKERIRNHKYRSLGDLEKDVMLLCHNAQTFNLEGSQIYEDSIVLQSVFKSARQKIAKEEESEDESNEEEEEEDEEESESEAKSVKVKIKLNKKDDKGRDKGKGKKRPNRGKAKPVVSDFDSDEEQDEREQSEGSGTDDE

| SMILES | BRM Max % Inhibition (BRM) [%] | IC50 (BRM) [µM] | IC50 (BRG-1) [µM] | Emax (BRG-1) [%] | BRG1 Max % Inhibition (BRG-1) [%] |
| --- | --- | --- | --- | --- | --- |
| COC[C@H](NC(=O)c1cccc(C(C)(C)CN)c1)C(=O)Nc1nc(-c2cccc(-c3ccnc(C)c3)c2)cs1 [Compound 68, (S)-3-(1-amino-2-methylpropan-2-yl)-N-(3-methoxy-1-((4-(3-(2-methylpyridin-4-yl)phenyl)thiazol-2-yl)amino)-1-oxopropan-2-yl)benzamide] | >95 | 0.1 to 1 | 0.1 to 1 | > 90 | – |
| NCC1(c2cccc(C(=O)NCC(=O)Nc3nc(-c4cccc(-c5ccncc5)c4)cs3)c2)CC1 [Compound 72, 3-(1-(aminomethyl)cyclopropyl)-N-(2-oxo-2-((4-(3-(pyridin-4-yl)phenyl)thiazol-2-yl)amino)ethyl)benzamide] | >80 | 0.1 to 1 | > 5 | > 50 | – |
| Cc1cc(C(=O)NCC(=O)Nc2nc(-c3cccc(-c4ccncc4)c3)cs2)cc(C(C)(C)C#N)c1C [Compound 75, 3-(2-cyanopropan-2-yl)-4,5-dimethyl-N-(2-oxo-2-((4-(3-(pyridin-4-yl)phenyl)thiazol-2-yl)amino)ethyl)benzamide] | >80 | 0.1 to 1 | > 5 | < 30 | – |
| CC1(C#N)CCc2ccc(C(=O)NCC(=O)Nc3nc(-c4cccc(-c5ccncc5)c4)cs3)cc21 (stereo not shown) [Compound 76, 3-cyano-3-methyl-N-(2-oxo-2-((4-(3-(pyridin-4-yl)phenyl)thiazol-2-yl)amino)ethyl)-2,3-dihydro-1H-indene-5-carboxamide] | >95 | < 0.1 | < 0.1 | > 80 | – |
| CC(O)(c1cccc(C(=O)NCC(=O)Nc2nc(-c3cccc(-c4ccncc4)c3)cs2)c1)C(F)(F)F (stereo not shown) [Compound 78, N-(2-oxo-2-((4-(3-(pyridin-4-yl)phenyl)thiazol-2-yl)amino)ethyl)-3-(1,1,1-trifluoro-2-hydroxypropan-2-yl)benzamide] | >80 | 0.1 to 1 | 1 to 5 | > 40 | – |
| CCC(C)(O)c1cccc(C(=O)NCC(=O)Nc2nc(-c3cccc(-c4ccncc4)c3)cs2)c1 (stereo not shown) [Compound 79, 3-(2-hydroxybutan-2-yl)-N-(2-oxo-2-((4-(3-(pyridin-4-yl)phenyl)thiazol-2-yl)amino)ethyl)benzamide] | >70 | 0.1 to 1 | 0.1 to 1 | > 50 | – |
| CC1(c2cccc(C(=O)NCC(=O)Nc3nc(-c4cccc(-c5ccncc5)c4)cs3)c2)CCNC1=O (stereo not shown) [Compound 82, 3-(3-methyl-2-oxopyrrolidin-3-yl)-N-(2-oxo-2-((4-(3-(pyridin-4-yl)phenyl)thiazol-2-yl)amino)ethyl)benzamide] | >95 | 0.1 to 1 | 0.1 to 1 | > 90 | – |
| CC(C)(/C(N)=N\O)c1cccc(C(=O)NCC(=O)Nc2nc(-c3cccc(-c4ccncc4)c3)cs2)c1 [Compound 83, (E)-3-(1-amino-1-(hydroxyimino)-2-methylpropan-2-yl)-N-(2-oxo-2-((4-(3-(pyridin-4-yl)phenyl)thiazol-2-yl)amino)ethyl)benzamide] | >90 | 1 to 5 | > 5 | > 50 | – |
| CSCC[C@H](NC(=O)c1ccc2c(c1)C(C)(O)C(=O)N2)C(=O)Nc1nc(-c2ccccc2)cs1 (stereo partly drawn) [Compound 85, 3-hydroxy-3-methyl-N—((S)-4-(methylthio)-1-oxo-1-((4-phenylthiazol-2-yl)amino)butan-2-yl)-2-oxoindoline-5-carboxamide] | >80 | > 5 | > 5 | > 60 | – |
| CC(C)(C#N)c1cccc(C(=O)NCC(=O)Nc2nc(-c3cccc(-c4ccncc4)c3)cs2)c1 [Compound 87, 3-(2-cyanopropan-2-yl)-N-(2-oxo-2-((4-(3-(pyridin-4-yl)phenyl)thiazol-2-yl)amino)ethyl)benzamide] | >80 | 0.1 to 1 | > 5 | < 30 | – |
| Cc1cc(C)c(C(C)(C)CN)cc1C(=O)NCC(=O)Nc1nc(-c2cccc(-c3ccncc3)c2)cs1 [Compound 89] | >80 | 1 to 5 | > 5 | > 30 | – |
| CC1(C(N)=O)CCc2ccc(C(=O)NCC(=O)Nc3nc(-c4cccc(-c5ccncc5)c4)cs3)cc21 (stereo not shown) [Compound 96] | >95 | 0.1 to 1 | 1 to 5 | > 90 | – |
| Cc1cc(C(=O)NCC(=O)Nc2nc(-c3cccc(-c4ccncc4)c3)cs2)cc(C(C)(C)CN)c1C [Compound 97] | >90 | 0.1 to 1 | 1 to 5 | > 70 | – |
| CC1(CN)CCc2ccc(C(=O)NCC(=O)Nc3nc(-c4cccc(-c5ccncc5)c4)cs3)cc21 (stereo not shown) [Compound 101] | >90 | 0.1 to 1 | 1 to 5 | > 70 | – |
| CC1(CO)CCc2ccc(C(=O)NCC(=O)Nc3nc(-c4cccc(-c5ccncc5)c4)cs3)cc21 (stereo not shown) [Compound 102] | >95 | < 0.1 | 0.1 to 1 | > 80 | – |

Other lines, results leading:

| BRM Max % Inhibition (BRM) [%] | IC50 (BRM) [µM] | IC50 (BRG-1) [µM] | Emax (BRG-1) [%] | BRG1 Max % Inhibition (BRG-1) [%] | SMILES |
| --- | --- | --- | --- | --- | --- |
| >70 | 0.1 to 1 | > 5 | > 30 | – | Cn1ccc(-c2cccc(-c3csc(NC(=O)CNC(=O)c4cccc(C(C)(C)CN)c4)n3)c2)n1 [Compound 69, 3-(1-amino-2-methylpropan-2-yl)-N-(2-((4-(3-(1-methyl-1H-pyrazol-3-yl)phenyl)thiazol-2-yl)amino)-2-oxoethyl)benzamide] |
| >95 | 0.1 to 1 | > 5 | > 50 | – | Cc1ccc(C(=O)NCC(=O)Nc2nc(-c3cccc(-c4ccn(C)n4)c3)cs2)cc1C(C)(C)CN [Compound 70, 3-(1-amino-2-methylpropan-2-yl)-4-methyl-N-(2-((4-(3-(1-methyl-1H-pyrazol-3-yl)phenyl)thiazol-2-yl)amino)-2-oxoethyl)benzamide] |
| >70 | 1 to 5 | > 5 | > 30 | – | CCc1ccc(C(=O)NCC(=O)Nc2nc(-c3cccc(-c4ccn(C)n4)c3)cs2)cc1C(C)(C)CN [Compound 71, 3-(1-amino-2-methylpropan-2-yl)-4-ethyl-N-(2-((4-(3-(1-methyl-1H-pyrazol-3-yl)phenyl)thiazol-2-yl)amino)-2-oxoethyl)benzamide] |
| >95 | < 0.1 | 0.1 to 1 | > 80 | – | CC(C)(CO)c1cccc(C(=O)NCC(=O)Nc2nc(-c3cccc(-c4ccncc4)c3)cs2)c1 [Compound 73, 3-(1-hydroxy-2-methylpropan-2-yl)-N-(2-oxo-2-((4-(3-(pyridin-4-yl)phenyl)thiazol-2-yl)amino)ethyl)benzamide] |
| >90 | 0.1 to 1 | 0.1 to 1 | > 80 | – | CC(C)(O)c1cccc(C(=O)NCC(=O)Nc2nc(-c3cccc(-c4ccncc4)c3)cs2)c1 [Compound 77] |
| >95 | 0.1 to 1 | 1 to 5 | > 90 | – | CC(C)(C(N)=O)c1cccc(C(=O)NCC(=O)Nc2nc(-c3cccc(-c4ccncc4)c3)cs2)c1 [Compound 84, 3-(1-amino-2-methyl-1-oxopropan-2-yl)-N-(2-oxo-2-((4-(3-(pyridin-4-yl)phenyl)thiazol-2-yl)amino)ethyl)benzamide] |
| >80 | > 5 | 1 to 5 | > 60 | – | CC(C)(N)c1cccc(C(=O)NCC(=O)Nc2nc(-c3cccc(-c4ccncc4)c3)cs2)c1 [Compound 86, 3-(2-aminopropan-2-yl)-N-(2-oxo-2-((4-(3-(pyridin-4-yl)phenyl)thiazol-2-yl)amino)ethyl)benzamide] |
| >60 | 1 to 5 | > 5 | < 30 | – | Cc1cc(-c2cccc(-c3csc(NC(=O)CNC(=O)c4cccc(C(C)(C)C(C)C)c4)n3)c2)cc(C)n1 [Compound 90] |
| >50 | 1 to 5 | > 5 | > 30 | – | C[C@H](N)C(C)(C)c1cccc(C(=O)NCC(=O)Nc2nc(-c3cccc(-c4ccncc4)c3)cs2)c1 [Compound 91] |
| >95 | < 0.1 | 0.1 to 1 | > 95 | – | Cc1cc(-c2cccc(-c3csc(NC(=O)CNC(=O)c4ccc(C)c(C(C)(C)CN)c4)n3)c2)cc(C)n1 [Compound 92] |
| >95 | < 0.1 | 0.1 to 1 | > 90 | – | Cc1cc(-c2cccc(-c3csc(NC(=O)CNC(=O)c4cccc(C(C)(C)CO)c4)n3)c2)nc(C)n1 [Compound 93] |
| >95 | < 0.1 | < 0.1 | – | >95 | Cc1cc(-c2cccc(-c3csc(NC(=O)CNC(=O)c4cccc(C(C)(C)CO)c4)n3)c2)nc(C)n1 [Compound 94] |
| >95 | < 0.1 | 0.1 to 1 | > 90 | – | Cc1nccc(-c2cccc(-c3csc(NC(=O)CNC(=O)c4cccc(C(C)(C)CN)c4)n3)c2)n1 [Compound 95] |
| >95 | 0.1 to 1 | 1 to 5 | > 70 | – | Cc1cc(-c2cccc(-c3csc(NC(=O)CNC(=O)c4cccc(C(C)(C)CN)c4)n3)c2)ncn1 [Compound 98] |
| >95 | < 0.1 | 0.1 to 1 | > 90 | – | C[C@@H]1CN(c2cccc(-c3csc(NC(=O)CNC(=O)c4cccc(C(C)(C)CN)c4)n3)c2)C[C@H](C)O1 [Compound 99] |
| >95 | < 0.1 | < 0.1 | – | >95 | Cc1nccc(-c2cccc(-c3csc(NC(=O)CNC(=O)c4cccc(C(C)(C)CN)c4)n3)c2)n1 [Compound 100] |
